Measurements reported in patent US11834440B2, “Beta-lactam derivatives for the treatment of diseases” (Insilico Medicine IP Limited, priority 2021, dated 2023).

Biological target: QPCTL (Homo sapiens (Human), UniProt Q9NXS2)
Test: QPCTL inhibition, SensoLyte Green Glutaminyl Cyclase Activity Assay
Assay type: biochemical
Conditions: 0.8 nM 2x enzyme solution, 45 min at 37° C., 50 mM Tris pH 8.0, 1% DMSO
Description: Preparation of working solution: 2×Glutaminyl Cyclase substrate was diluted in assay buffer to […]. 2×enzyme solution and QPCTL was diluted in assay buffer to 0.8 nM. Glutaminyl Cyclase Developer was diluted in assay buffer to 1×(containing 10 mM 1-Benzyl-Imidazole). Serial dilution of test compounds was performed in DMSO. The final DMSO concentration in 100 μl reaction was 1%. The assay buffer was 50 mM Tris, pH 8.0, 0.01% BSA.
Procedure: 50 μL of 2×Glutaminyl Cyclase substrate solution was added into the assay plate followed by 50 μL of 2×enzyme solution. The plate was centrifuged for 1 min at 1000 rmp. Next the plate was incubated for 45 minutes at 37° C. This was followed by the additional of 50 μL of the prepared Glutaminyl Cyclase developer and incubated for additional 30 min at 37° C. Results were read on SpectraMax Paradigm detecting with emission at Ex/Em=490 nm/520 nm.
A Z′ value was calculated for each assay plate. The Z′ value must be >0.5 or the plate was disqualified. […] Results were calculated using GraphPad Prism 7 software is used for IC50 determination.

QPCTL, sequence (Q9NXS2 whole entry, species assumed): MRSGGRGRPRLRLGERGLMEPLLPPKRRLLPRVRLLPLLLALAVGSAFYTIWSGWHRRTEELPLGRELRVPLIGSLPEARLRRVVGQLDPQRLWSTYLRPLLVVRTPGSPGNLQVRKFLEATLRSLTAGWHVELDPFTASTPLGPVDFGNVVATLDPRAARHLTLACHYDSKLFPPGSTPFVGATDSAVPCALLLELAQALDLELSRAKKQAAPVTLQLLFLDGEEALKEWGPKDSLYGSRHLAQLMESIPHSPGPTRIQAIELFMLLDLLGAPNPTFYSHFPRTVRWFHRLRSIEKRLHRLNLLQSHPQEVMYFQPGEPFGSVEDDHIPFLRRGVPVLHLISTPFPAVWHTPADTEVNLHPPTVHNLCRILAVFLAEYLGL

Row | SMILES | IC50 [nM]
1 | C[C@@H]1C(=O)N(c2ccc3[nH]cnc3c2)[C@@H]1c1c(F)cc(OCC(C)(C)O)cc1F (single isomer, unassigned) [Compound 32A] | 25 to 1000
2 | C[C@H]1C(=O)N(c2ccc3[nH]cnc3c2)[C@H]1c1c(F)cc(OCC(C)(C)O)cc1F (single isomer, unassigned) [Compound 32B] | < 2
3 | O=C1[C@@H](C2CC2)[C@@H](c2ccc(-c3cnn(C(F)(F)F)c3)nc2)N1c1ccc2[nH]cnc2c1 (single isomer, unassigned) [Compound 43A] | 25 to 1000
4 | O=C1[C@H](C2CC2)[C@H](c2ccc(-c3cnn(C(F)(F)F)c3)nc2)N1c1ccc2[nH]cnc2c1 (single isomer, unassigned) [Compound 43B] | < 2
5 | O=C1[C@H](C2COC2)[C@H](c2c(F)cc(OCCC(F)F)cc2F)N1c1ccc2[nH]cnc2c1 (single isomer, unassigned) [Compound 44B] | < 2
6 | O=C1[C@@H](C2CC2)[C@@H](c2ccc(OCCC(F)F)nc2)N1c1ccc2[nH]cnc2c1 (single isomer, unassigned) [Compound 45A] | 25 to 1000
7 | O=C1[C@H](C2CC2)[C@H](c2ccc(OCCC(F)F)nc2)N1c1ccc2[nH]cnc2c1 (single isomer, unassigned) [Compound 45B] | < 2
8 | O=C1[C@@H](C2CC2)[C@@H](c2ccc(-c3cnn(C(F)(F)F)c3)cn2)N1c1ccc2[nH]cnc2c1 (single isomer, unassigned) [Compound 46A] | 25 to 1000
9 | O=C1[C@@H](C2CC2)[C@@H](c2c(F)cc(-n3ccc(C(F)(F)F)n3)cc2F)N1c1ccc2[nH]cnc2c1 (single isomer, unassigned) [Compound 48A] | 2 to 25
10 | O=C1[C@H](C2CC2)[C@H](c2c(F)cc(-n3ccc(C(F)(F)F)n3)cc2F)N1c1ccc2[nH]cnc2c1 (single isomer, unassigned) [Compound 48B] | < 2

Second part, the compound after the results:

Row | IC50 [nM] | SMILES
11 | 25 to 1000 | O=C1[C@@H](C2CC2)[C@@H](c2c(F)cc(-c3cnn(C(F)(F)F)c3)cc2F)N1c1ccc2[nH]cnc2c1 (single isomer, unassigned) [Compound 35A]
12 | < 2 | O=C1[C@H](C2CC2)[C@H](c2c(F)cc(-c3cnn(C(F)(F)F)c3)cc2F)N1c1ccc2[nH]cnc2c1 (single isomer, unassigned) [Compound 35B]
13 | 25 to 1000 | O=C1[C@@H](C2COC2)[C@@H](c2c(F)cc(-c3cnn(C(F)(F)F)c3)cc2F)N1c1ccc2[nH]cnc2c1 (single isomer, unassigned) [Compound 42A]
14 | < 2 | O=C1[C@H](C2COC2)[C@H](c2c(F)cc(-c3cnn(C(F)(F)F)c3)cc2F)N1c1ccc2[nH]cnc2c1 (single isomer, unassigned) [Compound 42B]
15 | < 2 | O=C1[C@H](C2CC2)[C@H](c2ccc(-c3cnn(C(F)(F)F)c3)cn2)N1c1ccc2[nH]cnc2c1 (single isomer, unassigned) [Compound 46B]
16 | < 2 | O=C1[C@H](C2CC2)[C@H](c2c(F)cc(-c3ccn(C(F)(F)F)n3)cc2F)N1c1ccc2[nH]cnc2c1 (single isomer, unassigned) [Compound 47B]
17 | 2 to 25 | O=C1[C@H](C2CC2)[C@H](c2c(F)cc(-c3cn(C(F)(F)F)cn3)cc2F)N1c1ccc2[nH]cnc2c1 (single isomer, unassigned) [Compound 49B]
18 | 25 to 1000 | O=C1[C@@H](C2CC2)[C@@H](c2c(F)cc(-c3cn(C(F)(F)F)nn3)cc2F)N1c1ccc2[nH]cnc2c1 (single isomer, unassigned) [Compound 50A]
19 | < 2 | O=C1[C@H](C2CC2)[C@H](c2c(F)cc(-c3cn(C(F)(F)F)nn3)cc2F)N1c1ccc2[nH]cnc2c1 (single isomer, unassigned) [Compound 50B]
20 | 25 to 1000 | CC[C@@H]1C(=O)N(c2ccc3[nH]cnc3c2)[C@@H]1c1c(F)cc(-c2cnn(C(F)(F)F)c2)cc1F (single isomer, unassigned) [Compound 51A]
21 | < 2 | CC[C@H]1C(=O)N(c2ccc3[nH]cnc3c2)[C@H]1c1c(F)cc(-c2cnn(C(F)(F)F)c2)cc1F (single isomer, unassigned) [Compound 51B]
